Test results from patent US10584117B2, “1,3,4-oxadiazole amide derivative compound as histone deacetylase 6 inhibitor, and pharmaceutical composition containing same” (Chong Kun Dang Pharmaceutical Corp., priority 2015, dated 2020).

Target: T1, human recombinant HDAC6 (Homo sapiens, UniProt Q9UBN7)
T1 construct: purchased Calbiochem 382180
T1 sequence (Q9UBN7 1-1215): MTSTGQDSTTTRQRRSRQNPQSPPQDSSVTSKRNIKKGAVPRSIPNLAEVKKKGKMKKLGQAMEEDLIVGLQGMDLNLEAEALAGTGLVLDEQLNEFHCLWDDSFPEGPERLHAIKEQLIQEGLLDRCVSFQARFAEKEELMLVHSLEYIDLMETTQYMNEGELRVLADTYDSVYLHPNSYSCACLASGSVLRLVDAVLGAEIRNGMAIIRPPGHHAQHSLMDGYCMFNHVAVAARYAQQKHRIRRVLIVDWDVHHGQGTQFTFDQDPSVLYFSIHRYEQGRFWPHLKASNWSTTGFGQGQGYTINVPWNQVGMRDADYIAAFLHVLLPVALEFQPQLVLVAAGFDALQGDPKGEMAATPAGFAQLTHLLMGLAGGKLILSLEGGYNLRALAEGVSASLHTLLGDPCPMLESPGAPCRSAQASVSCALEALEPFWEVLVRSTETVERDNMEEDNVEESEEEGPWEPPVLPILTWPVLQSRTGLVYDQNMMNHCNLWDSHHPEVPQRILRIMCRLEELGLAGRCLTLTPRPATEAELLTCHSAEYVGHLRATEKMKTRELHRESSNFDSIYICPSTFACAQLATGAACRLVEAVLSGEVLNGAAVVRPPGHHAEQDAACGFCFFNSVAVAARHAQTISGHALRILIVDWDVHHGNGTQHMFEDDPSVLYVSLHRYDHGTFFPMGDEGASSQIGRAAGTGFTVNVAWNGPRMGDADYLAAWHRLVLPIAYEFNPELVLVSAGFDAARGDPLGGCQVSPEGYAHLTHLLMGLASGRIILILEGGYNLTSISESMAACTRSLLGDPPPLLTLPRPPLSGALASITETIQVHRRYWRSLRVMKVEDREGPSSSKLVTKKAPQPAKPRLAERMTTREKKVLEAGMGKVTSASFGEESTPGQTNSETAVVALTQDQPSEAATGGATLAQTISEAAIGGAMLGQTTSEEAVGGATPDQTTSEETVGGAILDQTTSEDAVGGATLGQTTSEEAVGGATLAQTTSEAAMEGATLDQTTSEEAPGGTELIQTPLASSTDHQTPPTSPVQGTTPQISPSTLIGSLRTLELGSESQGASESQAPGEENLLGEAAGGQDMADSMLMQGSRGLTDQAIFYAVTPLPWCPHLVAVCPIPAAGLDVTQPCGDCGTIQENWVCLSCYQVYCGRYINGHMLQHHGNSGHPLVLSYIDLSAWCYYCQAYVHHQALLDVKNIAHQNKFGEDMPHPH
Test: HDAC enzyme activity inhibition assay (HDAC6, fluorimetric kit)
Assay type: biochemical
Conditions: for HDAC6 selectivity (fold): HDAC6 versus HDAC1; for IC50: same protocol as the HDAC1 test
Experimental: In order to examine the HDAC6 selectivity of the compounds of formula I of the present invention by HDAC1 and HDAC6 enzymatic activity inhibition assays, an experiment was performed using a conventional substance as a control. HDAC enzyme activity was measured using a HDAC Fluorimetric Drug Discovery Kit (BML-AK511, 516) from Enzo Life Science. For the HDAC1 enzyme activity test, human recombinant HDAC1 (BML-SE456) was used as an enzyme source, and Fluor de Lys®-“SIRT1 (BNL-KI177) was used as a substrate. A 5-fold dilution of the compound was seeded into a 96-well plate, and then 0.3 μg of the enzyme and 10 μM of the substrate were added to each well of the plate and allowed to react at 30° C. for 60 minutes. Then, Fluor de Lys®-Developer II (BML-KI176) was added thereto and allowed to react for 30 minutes, after which the fluorescence value (Ex 360, Em 460) was measured using a multi-plate reader (Flexstation 3, Molecular Device). The HDAC6 enzyme was tested using human recombinant HDAC6 (382180) from Calbiochem, according to the same protocol as the HDAC1 enzyme activity test method. Based on the resulting values, each IC50 value was calculated using GraphPad Prism4.0 program.

| Structure (SMILES) | HDAC6 selectivity (fold) | IC50 [nM] |
| --- | --- | --- |
| CC(=O)N1CCN(CC(=O)N(Cc2ccc(-c3nnc(C(F)F)o3)cc2F)c2ccc(F)c(Cl)c2)CC1 [Compound 11611, 2-(4-acetylpiperazin-1-yl)-N-(3-chloro-4-fluorophenyl)-N-(4-(5-(difluoromethyl)-1,3,4-oxadiazol-2-yl)-2-fluorobenzyl)acetamide] | 625 | 160 |
| CCN1CCC(C(=O)N(Cc2ccc(-c3nnc(C(F)(F)F)o3)cc2F)c2ccccc2)CC1 [Compound 11201] | 877 | 114 |
| CN1CCC(C(=O)N(Cc2ccc(-c3nnc(C(F)(F)F)o3)cc2F)c2ccccc2)CC1 [Compound 11200, N-(2-fluoro-4-(5-(trifluoromethyl)-1,3,4-oxadiazol-2-yl)benzyl)-1-methyl-N-phenylpiperidine-4-carboxamide] | 763 | 131 |
| O=C(C1CC1)N1CCN(CC(=O)N(Cc2ccc(-c3nnc(C(F)F)o3)cc2F)c2ccc(F)c(Cl)c2)CC1 [Compound 11612, N-(3-chloro-4-fluorophenyl)-2-(4-(cyclopropanecarbonyl)piperazin-1-yl)-N-(4-(5-(difluoromethyl)-1,3,4-oxadiazol-2-yl)-2-fluorobenzyl)acetamide] | 535 | 187 |
| O=C(C1CN(C(=O)C(F)(F)F)C1)N(Cc1ccc(-c2nnc(C(F)(F)F)o2)cc1)c1ccccc1 [Compound 11159, N-phenyl-1-(2,2,2-trifluoroacetyl)-N-(4-(5-(trifluoromethyl)-1,3,4-oxadiazol-2-yl)benzyl)azetidine-3-carboxamide] | 787 | 127 |
| CC(=O)N(Cc1ccc(-c2nnc(C(F)(F)F)o2)cc1)c1ccccc1 [Compound 11105, N-phenyl-N-(4-(5-(trifluoromethyl)-1,3,4-oxadiazol-2-yl)benzyl)acetamide] | 524 | 191 |
| O=C(C1CCS(=O)(=O)CC1)N(Cc1ccc(-c2nnc(C(F)F)o2)cc1F)c1ccc(F)c(Cl)c1 [Compound 11603, N-(3-chloro-4-fluorophenyl)-N-(4-(5-(difluoromethyl)-1,3,4-oxadiazol-2-yl)-2-fluorobenzyl)tetrahydro-2H-thiopyran-4-carboxamide 1,1-dioxide] | 685 | 146 |
| CC(C)C(=O)N1CCC(C(=O)N(Cc2ccc(-c3nnc(C(F)(F)F)o3)cc2F)c2ccccc2)CC1 [Compound 11205, N-(2-fluoro-4-(5-(trifluoromethyl)-1,3,4-oxadiazol-2-yl)benzyl)-1-isobutyryl-N-phenylpiperidine-4-carboxamide] | 332 | 301 |
| CS(=O)(=O)N1CCN(CC(=O)N(Cc2ccc(-c3nnc(C(F)F)o3)cc2F)c2ccc(F)c(Cl)c2)CC1 [Compound 11613, N-(3-chloro-4-fluorophenyl)-N-(4-(5-(difluoromethyl)-1,3,4-oxadiazol-2-yl)-2-fluorobenzyl)-2-(4-(methylsulfonyl)piperazin-1-yl)acetamide] | 676 | 148 |
| O=C(C1CCN(C2COC2)CC1)N(Cc1ccc(-c2nnc(C(F)(F)F)o2)cc1F)c1ccccc1 [Compound 11621, N-(2-fluoro-4-(5-(trifluoromethyl)-1,3,4-oxadiazol-2-yl)benzyl)-1-(oxetan-3-yl)-N-phenylpiperidine-4-carboxamide] | 358 | 279 |

Stronger by IC50, values ahead:

| HDAC6 selectivity (fold) | IC50 [nM] | Structure (SMILES) |
| --- | --- | --- |
| 2941 | 34 | O=C(c1ccncc1)N(Cc1ccc(-c2nnc(C(F)F)o2)cn1)c1ccccc1 [Compound 11341, N-((5-(5-(difluoromethyl)-1,3,4-oxadiazol-2-yl)pyridin-2-yl)methyl)-N-phenylisonicotinamide] |
| 1754 | 57 | CC(=O)N1CC(C(=O)N(Cc2ccc(-c3nnc(C(F)(F)F)o3)cc2F)c2ccccc2)C1 [Compound 11234, 1-acetyl-N-(2-fluoro-4-(5-(trifluoromethyl)-1,3,4-oxadiazol-2-yl)benzyl)-N-phenylazetidine-3-carboxamide] |
| 4167 | 24 | O=C(c1cccnc1)N(Cc1ccc(-c2nnc(C(F)F)o2)cn1)c1cccc(F)c1 [Compound 11376, N-((5-(5-(difluoromethyl)-1,3,4-oxadiazol-2-yl)pyridin-2-yl)methyl)-N-(3-fluorophenyl)nicotinamide] |
| 2439 | 41 | CC(C)N1CC(C(=O)N(Cc2ccc(-c3nnc(C(F)F)o3)cc2F)c2ccccc2)C1 [Compound 11240, N-(4-(5-(difluoromethyl)-1,3,4-oxadiazol-2-yl)-2-fluorobenzyl)-1-isopropyl-N-phenylazetidine-3-carboxamide] |
| 2564 | 39 | CCC(=O)N1CC(C(=O)N(Cc2ccc(-c3nnc(C(F)F)o3)cc2F)c2ccccc2)C1 [Compound 11242, N-(4-(5-(difluoromethyl)-1,3,4-oxadiazol-2-yl)-2-fluorobenzyl)-N-phenyl-1-propionylazetidine-3-carboxamide] |
| 1163 | 86 | O=C(CN1CCOCC1)N(Cc1ccc(-c2nnc(C(F)F)o2)cc1F)c1ccc(F)c(Cl)c1 [Compound 11535, N-(3-chloro-4-fluorophenyl)-N-(4-(5-(difluoromethyl)-1,3,4-oxadiazol-2-yl)-2-fluorobenzyl)-2-morpholinoacetamide] |
| 1887 | 53 | CC(=O)N(Cc1ccc(-c2nnc(C(F)F)o2)cc1F)c1ccccc1 [Compound 11247, N-(4-(5-(difluoromethyl)-1,3,4-oxadiazol-2-yl)-2-fluorobenzyl)-N-phenylacetamide] |
| 2000 | 50 | O=C(c1ccncc1)N(Cc1ccc(-c2nnc(C(F)F)o2)cc1F)c1ccccc1 [Compound 11110, N-(4-(5-(difluoromethyl)-1,3,4-oxadiazol-2-yl)-2-fluorobenzyl)-N-phenylisonicotinamide] |
| 2564 | 39 | O=C(c1ccncc1)N(Cc1ccc(-c2nnc(C(F)F)o2)cc1F)c1cccc(F)c1 [Compound 11189, N-(4-(5-(difluoromethyl)-1,3,4-oxadiazol-2-yl)-2-fluorobenzyl)-N-(3-fluorophenyl)isonicotinamide] |
| 2222 | 45 | CN1CC(C(=O)N(Cc2ccc(-c3nnc(C(F)F)o3)cc2F)c2ccccc2)C1 [Compound 11238, N-(4-(5-(difluoromethyl)-1,3,4-oxadiazol-2-yl)-2-fluorobenzyl)-1-methyl-N-phenylazetidine-3-carboxamide] |
| 2381 | 42 | CS(=O)(=O)N1CC(C(=O)N(Cc2ccc(-c3nnc(C(F)(F)F)o3)cc2F)c2ccccc2)C1 [Compound 11237, N-(2-fluoro-4-(5-(trifluoromethyl)-1,3,4-oxadiazol-2-yl)benzyl)-1-(methanesulfonyl)-N-phenylazetidine-3-carboxamide] |
| 3125 | 32 | O=C(c1ccncc1)N(Cc1ccc(-c2nnc(C(F)F)o2)cn1)c1cccc(F)c1 [Compound 11360, N-((5-(5-(difluoromethyl)-1,3,4-oxadiazol-2-yl)pyridin-2-yl)methyl)-N-(3-fluorophenyl)isonicotinamide] |
